Experimental data from PMC5958098, “The trimeric solution structure and fucose-binding mechanism of the core fucosylation-specific lectin PhoSL” (Scientific Reports, 2018).

Assays:
PhoSL = biological target: T1, PhoSL (Pholiota squarrosa, UniProt A0A384E107); assay: NMR chemical shift titration; format: binding; conditions: 20 mM Tris-HCl pH 7.5, 0.2 mM DTT, 308 K; 50 μM peptide (as monomer); average for the two anomers
T1 construct: chemically synthesized 40-residue peptide, free termini, no tag, reduced Cys (DTT), homotrimer; […]; repeat 1 of a 180-residue polypeptide; differs from literature peptide at positions 23, 27, 35, 40

[1] = biological target: the molecule itself; assay: SEC; Superdex 75 10/300 with marker proteins; 96 μM PhoSL peptide; 20 mM Tris-HCl pH 7.5, 100 mM NaCl

C[C@@H]1OC(O)[C@@H](O)[C@H](O)[C@@H]1O (mixture of isomers) [L-fucose]
Kd (PhoSL): 5.9 ± 0.2 mM

B1: PhoSL peptide (core α1–6 fucosylation-specific lectin from Pholiota squarrosa), chemically synthesized, 40 residues (peptide)
chain: APVPVTKLVCDGDTYKCTAYLDYGDGKWVAQWDTAVFHTT
notes: PhoSL lectin of Pholiota squarrosa; it corresponds to the first of three PhoSL-like repeats of the 180-residue polypeptide; numbers count on: the 40-residue peptide; No N-terminal acetylation and no C-terminal amidation; Cys10 and Cys17 were reduced (DTT) in the NMR samples; Homotrimer by gel filtration combined with cross-linking, and by the NMR structure; also called PhoSL trimer; source: …
stoichiometry N [1]: 3
